What is called IC50 is the point on the concentration scale where inhibition reaches its midpoint.

Our source for the IC50 values is patent US8785470B2, “Heterocyclic compounds and uses thereof” (Infinity Pharmaceuticals, Inc., priority 2011, dated 2014).

For assay [1], the system named is phospho-AKT in RAJI cells (PI3Kδ). In words: PI3Kδ selective assay, phospho-AKT in RAJI cells. The class given is cell-based. The settings on record: RAJI cells stimulated with anti-human IgM; read-out: IC50 for phospho-AKT, RAJI cell model. From the text:
A compound's ability in selectively inhibiting PI3Kδ can be assessed using RAJI cells, i.e., B lymphocyte cells derived from lymphoma patients. Briefly, serum-starved RAJI cells are stimulated with anti-human IgM, thereby causing signaling through the B-cell receptors, as described in, for example, He et al., Leukemia Research (2009) 33: 798-802. B-cell receptor signaling is important for the activation, differentiation, and survival of B cells and certain B-cell derived cancers. Reduction of phospho-AKT is indicative of compounds that may inhibit B-cell proliferation and function in certain diseases. By monitoring the reduction of phospho-AKT in stimulated RAJI cells (using for example, phospho-AKT antibodies), a compound's potential efficacy in selectively inhibiting PI3Kδ can be assessed.

The next assay concerns the target T1, PI3Kβ (Homo sapiens, UniProt P42338).
T1 construct: purchased Millipore Corporation 14-603-K
In words: PI3-Kinase HTRF assay, PI3Kβ. It counts as biochemical. The settings on record: bins Greater than 10 μM and Greater than 1 μM to 10 μM; 10 μM ATP, PIP2 at 10 μM. The method in brief:
(§1)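 Competitive time-resolved FRET readout of PIP3 formed from 10 μM PIP2 with 10 μM ATP, 1 h at room temperature, by each recombinant human isoform (α, β, γ, δ; 0.25-0.3 μg/ml). Compound (2% DMSO final) was preincubated 15 min with enzyme and substrate; IC50 fitted over 20 μM–0.1 nM, 12 points.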
On the technique in general: Time-resolved FRET reads energy transfer from a long-lived donor to a nearby acceptor.

The target of the next assay is T2, PI3Kα (Homo sapiens, UniProt P42336).
T2 construct: purchased Millipore Corporation 14-602-K
The experiment in a line: PI3-Kinase HTRF assay, PI3Kα. The class given is biochemical. The settings on record: bins Greater than 10 μM and Greater than 1 μM to 10 μM; 10 μM ATP, PIP2 at 10 μM; read-out: IC50 P13Kα. The procedure, abridged:
as §1

The subject of assay [2] is phospho-AKT in RAW 264.7 cells (PI3Kγ). The experiment in a line: PI3Kγ selective assay, phospho-AKT in RAW 264.7 cells. The class given is cell-based. The settings on record: Mus musculus, RAW264.7, stimulated with C5a, read-out: IC50 for phospho-AKT, RAW 264.7 cell model. From the text:
A compound's ability in selectively inhibiting PI3Kγ can be assessed using RAW264.7 macrophages. Briefly, serum-starved PAW264.7 cells are stimulated with a known GPCR agonist C5a. (See, e.g., Camps et al., Nature Medicine (2005) 11(9): 936-943). Cells can be treated with test compounds prior to, simultaneously with, or subsequent to the stimulation by C5a. RAW 264.7 cells respond to the complement component fragment C5a through activation of the C5a receptor, and the C5a receptor activates macrophages and induces cell migration. Test compounds' ability to inhibit C5a-mediated AKT phosphorylation is indicative of selective inhibition of PI3Kγ. Thus, by monitoring the reduction of phospho-AKT in stimulated RAW 264.7 cells (using for example, phospho-AKT antibodies), a compound's potential efficacy in selectively inhibiting PI3Kγ can be assessed.

Where [3] appears, read: ranges less than 100 nM and between 100 nM and 1 μM (given as 100-1000).

Molecules are shown by their SMILES. Where two headings read alike, the source gives them in different places. Some results are limits rather than exact numbers.

T1 sequence (P42338 whole entry): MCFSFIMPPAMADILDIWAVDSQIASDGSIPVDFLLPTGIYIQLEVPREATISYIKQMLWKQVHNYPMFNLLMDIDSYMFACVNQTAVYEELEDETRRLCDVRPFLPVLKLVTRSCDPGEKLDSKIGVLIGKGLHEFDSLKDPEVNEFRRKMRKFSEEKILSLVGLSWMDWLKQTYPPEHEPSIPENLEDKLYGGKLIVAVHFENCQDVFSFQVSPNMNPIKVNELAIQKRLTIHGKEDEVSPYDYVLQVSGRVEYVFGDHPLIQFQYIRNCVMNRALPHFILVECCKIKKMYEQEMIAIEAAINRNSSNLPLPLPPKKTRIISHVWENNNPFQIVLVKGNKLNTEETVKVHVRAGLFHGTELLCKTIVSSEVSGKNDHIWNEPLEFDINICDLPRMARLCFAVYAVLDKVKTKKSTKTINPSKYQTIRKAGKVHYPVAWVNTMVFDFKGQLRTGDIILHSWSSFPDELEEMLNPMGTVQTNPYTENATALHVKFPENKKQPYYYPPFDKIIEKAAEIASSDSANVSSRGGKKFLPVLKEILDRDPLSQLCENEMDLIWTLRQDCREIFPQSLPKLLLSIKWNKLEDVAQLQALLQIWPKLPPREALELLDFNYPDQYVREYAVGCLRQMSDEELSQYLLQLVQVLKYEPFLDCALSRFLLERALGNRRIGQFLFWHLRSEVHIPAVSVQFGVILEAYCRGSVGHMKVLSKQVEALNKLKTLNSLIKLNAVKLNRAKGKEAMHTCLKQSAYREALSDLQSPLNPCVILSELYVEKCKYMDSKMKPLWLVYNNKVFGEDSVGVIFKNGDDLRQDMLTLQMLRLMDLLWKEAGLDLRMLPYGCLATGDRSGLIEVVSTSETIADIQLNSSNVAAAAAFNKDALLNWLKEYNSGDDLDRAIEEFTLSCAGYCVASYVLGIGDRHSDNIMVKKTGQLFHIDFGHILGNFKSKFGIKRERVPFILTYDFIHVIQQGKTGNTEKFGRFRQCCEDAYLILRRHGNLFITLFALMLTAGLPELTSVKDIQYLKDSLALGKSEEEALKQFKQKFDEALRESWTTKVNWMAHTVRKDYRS
T1 sequence (P27986 whole entry partner): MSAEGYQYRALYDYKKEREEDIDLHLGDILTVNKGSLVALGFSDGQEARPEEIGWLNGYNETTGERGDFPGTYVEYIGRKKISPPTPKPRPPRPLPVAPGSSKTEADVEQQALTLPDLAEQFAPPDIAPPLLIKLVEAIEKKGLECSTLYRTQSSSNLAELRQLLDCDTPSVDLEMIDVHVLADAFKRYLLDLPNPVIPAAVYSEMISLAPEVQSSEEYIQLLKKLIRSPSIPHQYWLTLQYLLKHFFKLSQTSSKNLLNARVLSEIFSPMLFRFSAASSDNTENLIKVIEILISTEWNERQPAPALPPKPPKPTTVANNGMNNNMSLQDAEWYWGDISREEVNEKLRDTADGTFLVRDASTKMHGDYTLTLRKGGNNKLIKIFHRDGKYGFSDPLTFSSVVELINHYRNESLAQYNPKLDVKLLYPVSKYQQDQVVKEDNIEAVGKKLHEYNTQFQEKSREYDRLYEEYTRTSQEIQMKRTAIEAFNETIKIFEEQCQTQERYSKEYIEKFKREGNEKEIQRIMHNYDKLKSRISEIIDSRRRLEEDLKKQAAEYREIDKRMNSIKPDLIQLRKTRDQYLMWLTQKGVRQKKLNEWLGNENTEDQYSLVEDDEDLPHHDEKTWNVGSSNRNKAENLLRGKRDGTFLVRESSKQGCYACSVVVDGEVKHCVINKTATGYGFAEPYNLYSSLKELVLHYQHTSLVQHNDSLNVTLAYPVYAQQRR
T2 sequence (P42336 whole entry): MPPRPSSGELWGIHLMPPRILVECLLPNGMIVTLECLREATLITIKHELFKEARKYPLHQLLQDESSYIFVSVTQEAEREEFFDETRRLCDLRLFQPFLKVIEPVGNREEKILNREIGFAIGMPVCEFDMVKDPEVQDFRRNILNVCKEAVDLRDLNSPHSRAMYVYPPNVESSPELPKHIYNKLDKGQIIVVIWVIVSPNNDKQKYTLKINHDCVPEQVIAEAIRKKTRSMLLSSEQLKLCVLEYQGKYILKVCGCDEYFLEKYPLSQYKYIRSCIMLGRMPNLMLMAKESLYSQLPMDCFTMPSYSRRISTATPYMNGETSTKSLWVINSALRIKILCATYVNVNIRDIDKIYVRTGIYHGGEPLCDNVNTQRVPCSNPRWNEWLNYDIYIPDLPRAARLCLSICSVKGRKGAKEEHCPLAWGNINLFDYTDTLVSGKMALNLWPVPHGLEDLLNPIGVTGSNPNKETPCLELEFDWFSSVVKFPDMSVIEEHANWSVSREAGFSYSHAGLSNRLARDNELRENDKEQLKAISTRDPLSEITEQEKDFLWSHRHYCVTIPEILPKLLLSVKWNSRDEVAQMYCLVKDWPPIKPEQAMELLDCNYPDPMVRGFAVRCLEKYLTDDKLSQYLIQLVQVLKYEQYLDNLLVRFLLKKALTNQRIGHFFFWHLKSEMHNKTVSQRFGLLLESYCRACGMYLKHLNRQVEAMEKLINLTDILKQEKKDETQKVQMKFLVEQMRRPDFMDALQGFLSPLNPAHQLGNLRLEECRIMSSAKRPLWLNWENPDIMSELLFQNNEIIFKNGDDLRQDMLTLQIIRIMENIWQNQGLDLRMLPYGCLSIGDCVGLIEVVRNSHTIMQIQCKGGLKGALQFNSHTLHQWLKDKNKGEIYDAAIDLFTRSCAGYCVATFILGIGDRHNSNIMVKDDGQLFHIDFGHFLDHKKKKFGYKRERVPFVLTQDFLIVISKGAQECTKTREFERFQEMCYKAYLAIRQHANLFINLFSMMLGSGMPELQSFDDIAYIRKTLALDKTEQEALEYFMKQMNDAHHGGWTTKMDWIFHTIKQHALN
T2 sequence (P27986 whole entry partner): as the sequence (P27986 whole entry partner) above

With `N#Cc1cnc(N)nc1NCc1cc2cccc(Cl)c2c(=O)n1-c1ccccc1` [Compound 241], the IC50 is less than 100 nM in assay [1], 1000 to 10000 nM on PI3Kβ, 1000 to 10000 nM at PI3Kα and less than 100 nM in assay [2] (setting [3]).

Turning to `C[C@H](Nc1nc(N)ncc1C#N)c1cc2cccc(Cl)c2c(=O)n1-c1cccc(C#N)c1` [Compound 285], the IC50 in assay [1] is less than 100 nM; at PI3Kα, 1000 to 10000 nM; in assay [2] (setting [3]) it was less than 100 nM.

Take `COc1cccc(-n2c([C@H](C)Nc3nc(N)ncc3C#N)cc3cccc(Cl)c3c2=O)c1` [Compound 288]: the IC50 in assay [1] was less than 100 nM; on PI3Kβ, 1000 to 10000 nM; in assay [2] (setting [3]), less than 100 nM.

For `COc1ncc(-c2cccc3cc([C@H](C)Nc4nc(N)ncc4C#N)n(C(C)C)c(=O)c23)cn1` [Compound 327], the IC50 was less than 100 nM in assay [1], 1000 to 10000 nM at PI3Kα and 100 to 1000 nM in assay [2] (setting [3]).

Turning to `CC(C)n1c([C@H](C)Nc2ncnc(N)c2C#N)cc2cccc(Cl)c2c1=O` [Compound 329], the IC50 was less than 100 nM in assay [1], 1000 to 10000 nM on PI3Kβ, 1000 to 10000 nM on PI3Kα and 100 to 1000 nM in assay [2] (setting [3]).

Turning to `Cc1ncc(-c2cccc3cc([C@H](C)Nc4ncnc(N)c4C#N)n(-c4ccon4)c(=O)c23)cn1` [Compound 336], the IC50 is less than 100 nM in assay [1]; 1000 to 10000 nM in assay [2] (range between 1 μM and 10 μM).

`COc1ncc(-c2cccc3cc([C@H](C)Nc4ncnc(N)c4C#N)n(-c4ccccc4)c(=O)c23)cn1` [Compound 356]: the half-inhibitory concentration (IC50) was less than 100 nM in assay [1] and 100 to 1000 nM in assay [2] (setting [3]).

As to `C[C@H](Nc1nc(N)ncc1-c1cn[nH]c1)c1cc2cccc(Cl)c2c(=O)n1-c1ccccc1` [Compound 378], the IC50 in assay [1] was less than 100 nM; in assay [2] (setting [3]), 100 to 1000 nM.

Take `C[C@H](Nc1nc(N)ncc1-c1ccoc1)c1cc2cccc(Cl)c2c(=O)n1-c1ccccc1` [Compound 379]: the concentration for half-maximal inhibition (IC50) in assay [1] and in assay [2] (setting [3]) was less than 100 nM in each case.

On to `COc1ncc(-c2cnc(N)nc2N[C@@H](C)c2cc3cccc(Cl)c3c(=O)n2-c2ccccc2)s1` [Compound 382], for which the figures for the IC50 (in assay [1]; on PI3Kβ; in assay [2] (setting [3])) were less than 100 nM, 1000 to 10000 nM and less than 100 nM, respectively.

For the compound `COc1ccc(-c2cnc(N)nc2N[C@@H](C)c2cc3cccc(Cl)c3c(=O)n2-c2ccccc2)cn1` [Compound 383], the IC50 was less than 100 nM in assay [1], 1000 to 10000 nM on PI3Kα and less than 100 nM in assay [2] (setting [3]).

With `C[C@H](Nc1nc(N)ncc1-c1cncs1)c1cc2cccc(-c3ccc(=O)n(C)c3)c2c(=O)n1-c1ccccc1` [Compound 387], the results for the IC50 in assay [1] and in assay [2] (setting [3]) were less than 100 nM and 100 to 1000 nM, respectively.

Regarding `C[C@H](Nc1nc(N)ncc1-c1cscn1)c1cc2cccc(-c3ccc(=O)n(C)c3)c2c(=O)n1-c1ccccc1` [Compound 393], the IC50 is less than 100 nM in assay [1] and 100 to 1000 nM in assay [2] (setting [3]).

For `CC(=O)c1cnc(N)nc1N[C@@H](C)c1cc2cccc(Cl)c2c(=O)n1-c1ccccc1` [Compound 394], the IC50 in assay [1] and in assay [2] (setting [3]) was less than 100 nM each time.

With `CCOc1nc(-c2cnc(N)nc2N[C@@H](C)c2cc3cccc(-c4cnc(OC)nc4)c3c(=O)n2-c2ccccc2)cs1` [Compound 396], the IC50 in assay [1] was less than 100 nM; against PI3Kβ, 1000 to 10000 nM; at PI3Kα, 1000 to 10000 nM; in assay [2] (setting [3]), 100 to 1000 nM.

Take `C[C@H](Nc1nc(N)ncc1-c1cccc(S(C)(=O)=O)c1)c1cc2cccc(Cl)c2c(=O)n1-c1ccccc1` [Compound 397]: the IC50 in assay [1] was less than 100 nM; at PI3Kβ it was 1000 to 10000 nM; at PI3Kα it was 1000 to 10000 nM; in assay [2] (setting [3]) it was less than 100 nM.

`C[C@H](Nc1nc(N)ncc1-c1cccc(NS(C)(=O)=O)c1)c1cc2cccc(Cl)c2c(=O)n1-c1ccccc1` [Compound 399]: the IC50 in assay [1] was less than 100 nM; on PI3Kβ, 1000 to 10000 nM; on PI3Kα it was 1000 to 10000 nM; in assay [2] (setting [3]), less than 100 nM.

With `C[C@H](Nc1nc(N)ncc1-c1cnc(S(C)(=O)=O)s1)c1cc2cccc(Cl)c2c(=O)n1-c1ccccc1` [Compound 403], the IC50 was less than 100 nM in assay [1], 1000 to 10000 nM against PI3Kβ and less than 100 nM in assay [2] (setting [3]).

With `C[C@H](Nc1nc(N)ncc1-c1cccc(N(C)S(C)(=O)=O)c1)c1cc2cccc(Cl)c2c(=O)n1-c1ccccc1` [Compound 408], the IC50 was less than 100 nM in assay [1], 1000 to 10000 nM at PI3Kβ, 1000 to 10000 nM at PI3Kα and less than 100 nM in assay [2] (setting [3]).

Turning to `C[C@H](Nc1nc(N)ncc1-c1cccc(NS(=O)(=O)N(C)C)c1)c1cc2cccc(Cl)c2c(=O)n1-c1ccccc1` [Compound 410], the IC50 in assay [1] and in assay [2] (setting [3]) was less than 100 nM in each case.

As for `Cc1ccc(NS(C)(=O)=O)cc1-c1cnc(N)nc1N[C@@H](C)c1cc2cccc(Cl)c2c(=O)n1-c1ccccc1` [Compound 412], the concentration for half-maximal inhibition (IC50) is less than 100 nM in assay [1], 1000 to 10000 nM against PI3Kβ and less than 100 nM in assay [2] (setting [3]).

Turning to `C[C@H](Nc1nc(N)ncc1-c1cccc(S(=O)(=O)N(C)C)c1)c1cc2cccc(Cl)c2c(=O)n1-c1ccccc1` [Compound 413], the IC50 in assay [1] and in assay [2] (setting [3]) was less than 100 nM throughout.

As to `C[C@H](Nc1nc(N)ncc1-c1cccc(S(N)(=O)=O)c1)c1cc2cccc(Cl)c2c(=O)n1-c1ccccc1` [Compound 414], the figures for the IC50 (in assay [1]; on PI3Kα; in assay [2] (setting [3])) were less than 100 nM, 1000 to 10000 nM and less than 100 nM, respectively.

As to `C=CS(=O)(=O)Nc1cccc(-c2cnc(N)nc2N[C@@H](C)c2cc3cccc(Cl)c3c(=O)n2-c2ccccc2)c1` [Compound 415], the IC50 in assay [1] and in assay [2] (setting [3]) was less than 100 nM throughout.

Take `CCS(=O)(=O)c1cccc(-c2cnc(N)nc2N[C@@H](C)c2cc3cccc(Cl)c3c(=O)n2-c2ccccc2)c1` [Compound 416]: the IC50 in assay [1] is less than 100 nM; at PI3Kα, 1000 to 10000 nM; in assay [2] (setting [3]), less than 100 nM.

`C[C@H](Nc1nc(N)ncc1-c1cccc(S(=O)(=O)C2CC2)c1)c1cc2cccc(Cl)c2c(=O)n1-c1ccccc1` [Compound 417]: the IC50 in assay [1] is less than 100 nM; at PI3Kβ, 1000 to 10000 nM; on PI3Kα it was 1000 to 10000 nM; in assay [2] (setting [3]) it was less than 100 nM.

`CNS(=O)(=O)c1cccc(-c2cnc(N)nc2N[C@@H](C)c2cc3cccc(Cl)c3c(=O)n2-c2ccccc2)c1` [Compound 418]: the figures for the IC50 (in assay [1]; at PI3Kα; in assay [2] (setting [3])) were less than 100 nM, 1000 to 10000 nM and less than 100 nM, respectively.

With `C[C@H](Nc1nc(N)ncc1-c1cccc(S(=O)(=O)N2CCCC2)c1)c1cc2cccc(Cl)c2c(=O)n1-c1ccccc1` [Compound 419], the IC50 in assay [1] and in assay [2] (setting [3]) was less than 100 nM each time.

Turning to `C[C@H](Nc1ncncc1-c1cccc(S(=O)(=O)N(C)C)c1)c1cc2cccc(Cl)c2c(=O)n1-c1ccccc1` [Compound 422], the IC50 in assay [1] was less than 100 nM; at PI3Kα it was 1000 to 10000 nM; in assay [2] (setting [3]) it was less than 100 nM.

Consider `CC(C)C(=O)c1cnc(N)nc1N[C@@H](C)c1cc2cccc(Cl)c2c(=O)n1-c1ccccc1` [Compound 424], for which the IC50 was less than 100 nM in assay [1], 1000 to 10000 nM at PI3Kα and 100 to 1000 nM in assay [2] (setting [3]).

With `C[C@H](Nc1nc(N)ncc1-c1cccc(S(C)(=O)=O)c1)c1cc2cccc(C(F)(F)F)c2c(=O)n1-c1ccccc1` [Compound 428], the half-inhibitory concentration (IC50) in assay [1] was less than 100 nM; against PI3Kβ it was 1000 to 10000 nM; at PI3Kα it was 1000 to 10000 nM; in assay [2] (setting [3]), less than 100 nM.
